Experimental data published in ChEMBL document CHEMBL5335843, “Application of tobramycin benzyl ether as an antibiotic adjuvant capable of sensitizing multidrug-resistant Gram-negative bacteria to rifampicin” (2024).
In brackets after ≈: the same amount, converted by molar mass. Activity calls are given as the source filed them. No cut-off for these calls is given here. Positions of bridges follow the written chain, without caps; N, C: chain ends. Non-standard residues stand in square brackets, D forms with d. Residues, ends and D or L forms follow the SMILES beside them. *: point of attachment. X1 = CC[C@H](C)CCCCC(=O)*; dDab = NCC[C@@H](N)C(=O)O; Dab = NCC[C@H](N)C(=O)O

Columns and labels:
Assay type in all cases: functional
[1] = system: Escherichia coli; experiment: Antibacterial activity against Escherichia coli ATCC 25922 assessed as inhibition of bacterial growth incubated for 18 hrs by two fold broth microdilution assay
[2] = system: Pseudomonas aeruginosa; experiment: Antibiotic adjuvant activity against Pseudomonas aeruginosa PAO1 assessed as fold potentiation incubated for 18 hrs in presence of Rifampicin by two fold broth microdilution checkerboard assay
[3] = system: Pseudomonas aeruginosa; experiment: Antibacterial activity against Pseudomonas aeruginosa PAO1 assessed as inhibition of bacterial growth incubated for 18 hrs by two fold broth microdilution assay
[4] = system: Acinetobacter baumannii; experiment: Antibiotic adjuvant activity against Acinetobacter baumannii ATCC 17978 assessed as fold potentiation incubated for 18 hrs in presence of Rifampicin by two fold broth microdilution checkerboard assay
[5] = system: Acinetobacter baumannii; experiment: Antibacterial activity against Acinetobacter baumannii ATCC 17978 assessed as inhibition of bacterial growth incubated for 18 hrs by two fold broth microdilution assay
[6] = system: Escherichia coli; experiment: Antibiotic adjuvant activity against Escherichia coli ATCC 25922 assessed as fold potentiation incubated for 18 hrs in presence of Rifampicin by two fold broth microdilution checkerboard assay
[7] = system: Acinetobacter baumannii; experiment: Antibiotic adjuvant activity against Acinetobacter baumannii ATCC 17978 assessed as rifampicin MIC incubated for 18 hrs in presence of Rifampicin by two fold broth microdilution checkerboard assay
[8] = system: Escherichia coli; experiment: Antibiotic adjuvant activity against Escherichia coli ATCC 25922 assessed as rifampicin MIC incubated for 18 hrs in presence of Rifampicin by two fold broth microdilution checkerboard assay
[9] = system: Pseudomonas aeruginosa; experiment: Antibacterial activity against multi-drug resistant Pseudomonas aeruginosa clinical isolate PA262 assessed as inhibition of bacterial growth incubated for 18 hrs by two fold broth microdilution assay
[10] = system: Escherichia coli; experiment: Antibacterial activity against multi-drug resistant Escherichia coli clinical isolate 94393 assessed as inhibition of bacterial growth incubated for 18 hrs by two fold broth microdilution assay
[11] = system: Pseudomonas aeruginosa; experiment: Antibacterial activity against multi-drug resistant Pseudomonas aeruginosa clinical isolate PA259 assessed as inhibition of bacterial growth incubated for 18 hrs by two fold broth microdilution assay
[12] = system: Pseudomonas aeruginosa; experiment: Antibacterial activity against multi-drug resistant Pseudomonas aeruginosa clinical isolate 101243 assessed as inhibition of bacterial growth incubated for 18 hrs by two fold broth microdilution assay
[13] = system: Acinetobacter baumannii; experiment: Antibacterial activity against multi-drug resistant Acinetobacter baumannii clinical isolate AB031 assessed as inhibition of bacterial growth incubated for 18 hrs by two fold broth microdilution assay
[14] = system: Acinetobacter baumannii; experiment: Antibacterial activity against multi-drug resistant Acinetobacter baumannii clinical isolate AB027 assessed as inhibition of bacterial growth incubated for 18 hrs by two fold broth microdilution assay
[15] = system: Pseudomonas aeruginosa; experiment: Antibacterial activity against multi-drug resistant Pseudomonas aeruginosa clinical isolate PA264 assessed as inhibition of bacterial growth incubated for 18 hrs by two fold broth microdilution assay
[16] = system: Staphylococcus aureus; experiment: Antibacterial activity against methicilin-resistant Staphylococcus aureus assessed as inhibition of bacterial growth incubated for 18 hrs by two fold broth microdilution assay
[17] = system: Escherichia coli; experiment: Antibacterial activity against multi-drug resistant Escherichia coli clinical isolate 94474 assessed as inhibition of bacterial growth incubated for 18 hrs by two fold broth microdilution assay
[18] = system: Escherichia coli; experiment: Antibacterial activity against multi-drug resistant Escherichia coli clinical isolate 107115 assessed as inhibition of bacterial growth incubated for 18 hrs by two fold broth microdilution assay
[19] = system: Acinetobacter baumannii; experiment: Antibacterial activity against multi-drug resistant Acinetobacter baumannii clinical isolate 92247 assessed as inhibition of bacterial growth incubated for 18 hrs by two fold broth microdilution assay
[20] = system: Enterococcus faecium; experiment: Antibacterial activity against Enterococcus faecium 128149 assessed as inhibition of bacterial growth incubated for 18 hrs by two fold broth microdilution assay
[21] = system: Pseudomonas aeruginosa; experiment: Antibacterial activity against multi-drug resistant Pseudomonas aeruginosa clinical isolate 114228 assessed as inhibition of bacterial growth incubated for 18 hrs by two fold broth microdilution assay
[22] = system: Enterococcus faecium; experiment: Antibacterial activity against Enterococcus faecium 114278 assessed as inhibition of bacterial growth incubated for 18 hrs by two fold broth microdilution assay
[23] = system: Acinetobacter baumannii; experiment: Antibacterial activity against multi-drug resistant Acinetobacter baumannii clinical isolate LAC-4 assessed as inhibition of bacterial growth incubated for 18 hrs by two fold broth microdilution assay
[24] = system: Acinetobacter baumannii; experiment: Antibacterial activity against multi-drug resistant Acinetobacter baumannii clinical isolate 110193 assessed as inhibition of bacterial growth incubated for 18 hrs by two fold broth microdilution assay
[25] = system: Escherichia coli; experiment: Antibacterial activity against multi-drug resistant Escherichia coli clinical isolate EC94474 assessed as inhibition of bacterial growth incubated for 18 hrs by two fold broth microdilution assay
[26] = system: Pseudomonas aeruginosa; experiment: Antibacterial activity against multi-drug resistant Pseudomonas aeruginosa clinical isolate PA114228 assessed as inhibition of bacterial growth incubated for 18 hrs by two fold broth microdilution assay
[27] = system: Escherichia coli; experiment: Antibacterial activity against multi-drug resistant Escherichia coli clinical isolate EC107115 assessed as inhibition of bacterial growth incubated for 18 hrs by two fold broth microdilution assay
[28] = system: Pseudomonas aeruginosa; experiment: Antibacterial activity against multi-drug resistant Pseudomonas aeruginosa clinical isolate PA101243 assessed as inhibition of bacterial growth incubated for 18 hrs by two fold broth microdilution assay
[29] = system: Enterococcus faecium; experiment: Antibiotic adjuvant activity against Enterococcus faecium 128149 assessed as inhibition of bacterial growth incubated for 18 hrs in presence of rifampicin by two fold broth microdilution checkerboard assay
[30] = system: Staphylococcus aureus; experiment: Antibiotic adjuvant activity against methicilin-resistant Staphylococcus aureus assessed as inhibition of bacterial growth incubated for 18 hrs in presence of rifampicin by two fold broth microdilution checkerboard assay
[31] = system: Enterococcus faecium; experiment: Antibiotic adjuvant activity against Enterococcus faecium 114278 assessed as inhibition of bacterial growth incubated for 18 hrs in presence of rifampicin by two fold broth microdilution checkerboard assay

Compound	MIC [1] [µg/mL]	fold change (FC) [2]	MIC [3] [µg/mL]	fold change (FC) [4]	MIC [5] [µg/mL]	MIC [7] [µg/mL]	further results
Cl.NC[C@H]1O[C@H](O[C@H]2[C@H](OCc3ccccc3)[C@@H](OCc3ccccc3)[C@H](N)C[C@@H]2N)[C@H](N)C[C@@H]1OCc1ccccc1	> 128	4	> 128	4	> 128	1	fold change (FC) [6]: 512; MIC [8]: 0.0312 µg/mL
CC(C)CCOC[C@H]1O[C@H](O[C@@H]2[C@@H](OCCC(C)C)[C@H](O[C@H]3O[C@H](CN)[C@@H](OCCC(C)C)C[C@H]3N)[C@@H](N)C[C@H]2N)[C@H](OCCC(C)C)[C@@H](N)[C@@H]1OCCC(C)C.Cl	4	16	16	2048	16	0.004	–
Cl.NC[C@H]1O[C@H](O[C@H]2[C@H](OCc3ccc(Cl)cc3)[C@@H](O[C@H]3O[C@H](COCc4ccc(Cl)cc4)[C@@H](OCc4ccc(Cl)cc4)[C@H](N)[C@H]3OCc3ccc(Cl)cc3)[C@H](N)C[C@@H]2N)[C@H](N)C[C@@H]1OCc1ccc(Cl)cc1	> 128	–	> 128	–	> 128	–	–
CO[C@H]1/C=C/O[C@@]2(C)Oc3c(C)c(O)c4c(O)c(c(/C=N/N5CCN(C)CC5)c(O)c4c3C2=O)NC(=O)/C(C)=C\C=C\[C@H](C)[C@H](O)[C@@H](C)[C@@H](O)[C@@H](C)[C@H](OC(C)=O)[C@@H]1C [RIFAMPIN]	–	–	–	–	–	–	MIC [9]: 512 µg/mL (≈ 622 µM); MIC [10]: 32 µg/mL (≈ 38.9 µM); MIC [11]: 16 µg/mL (≈ 19.4 µM); MIC [12]: 4 µg/mL (≈ 4.86 µM); MIC [13]: 2 µg/mL (≈ 2.43 µM); MIC [14]: 8 µg/mL (≈ 9.72 µM); MIC [15]: 16 µg/mL (≈ 19.4 µM); MIC [16]: 256 µg/mL (≈ 311 µM); MIC [17]: 8 µg/mL (≈ 9.72 µM); MIC [18]: 128 µg/mL (≈ 156 µM); MIC [19]: 4 µg/mL (≈ 4.86 µM); MIC [20]: 8 µg/mL (≈ 9.72 µM); MIC [21]: 16 µg/mL (≈ 19.4 µM); MIC [22]: 4 µg/mL (≈ 4.86 µM); MIC [23]: 2 µg/mL (≈ 2.43 µM); MIC [24]: 4 µg/mL (≈ 4.86 µM)
CC(C)CCO[C@@H]1[C@@H](OCCC(C)C)[C@H](N)C[C@H](N)[C@H]1O[C@H]1O[C@H](CN)[C@@H](OCCC(C)C)C[C@H]1N.Cl	> 128	4	> 128	4	> 128	0.5	fold change (FC) [6]: 512; MIC [8]: 0.0156 µg/mL
Cl.NC[C@H]1O[C@H](O[C@H]2[C@H](OCc3cc(Cl)cc(Cl)c3)[C@@H](O[C@H]3O[C@H](COCc4cc(Cl)cc(Cl)c4)[C@@H](OCc4cc(Cl)cc(Cl)c4)[C@H](N)[C@H]3OCc3cc(Cl)cc(Cl)c3)[C@H](N)C[C@@H]2N)[C@H](N)C[C@@H]1OCc1cc(Cl)cc(Cl)c1	> 128	–	> 128	–	> 128	–	–
CC(C)(C)c1ccc(COC[C@H]2O[C@H](O[C@@H]3[C@@H](OCc4ccc(C(C)(C)C)cc4)[C@H](O[C@H]4O[C@H](CN)[C@@H](OCc5ccc(C(C)(C)C)cc5)C[C@H]4N)[C@@H](N)C[C@H]3N)[C@H](OCc3ccc(C(C)(C)C)cc3)[C@@H](N)[C@@H]2OCc2ccc(C(C)(C)C)cc2)cc1.Cl	> 128	–	> 128	–	> 128	–	–
NC[C@H]1O[C@H](O[C@H]2[C@H](O)[C@@H](O[C@H]3O[C@H](CO)[C@@H](O)[C@H](N)[C@H]3O)[C@H](N)C[C@@H]2N)[C@H](N)C[C@@H]1O [TOBRAMYCIN]	2 (≈ 4.28 µM)	–	1 (≈ 2.14 µM)	–	0.5 (≈ 1.07 µM)	–	–
Cl.NC[C@H]1O[C@H](O[C@H]2[C@H](OCc3ccc(-c4ccccc4)cc3)[C@@H](O[C@H]3O[C@H](COCc4ccc(-c5ccccc5)cc4)[C@@H](OCc4ccc(-c5ccccc5)cc4)[C@H](N)[C@H]3OCc3ccc(-c4ccccc4)cc3)[C@H](N)C[C@@H]2N)[C@H](N)C[C@@H]1OCc1ccc(-c2ccccc2)cc1	> 128	–	> 128	–	> 128	–	–
CN(C)c1ccc(O)c2c1C[C@H]1C[C@H]3[C@H](N(C)C)C(O)=C(C(N)=O)C(=O)[C@@]3(O)C(O)=C1C2=O [MINOCYCLINE]	–	–	–	–	–	–	MIC [9]: 256 µg/mL (≈ 560 µM); MIC [25]: 64 µg/mL (≈ 140 µM); MIC [11]: 128 µg/mL (≈ 280 µM); MIC [26]: 128 µg/mL (≈ 280 µM); MIC [27]: 32 µg/mL (≈ 69.9 µM); MIC [15]: 32 µg/mL (≈ 69.9 µM); MIC [28]: 64 µg/mL (≈ 140 µM)
C[C@H]1c2cccc(O)c2C(=O)C2=C(O)[C@]3(O)C(=O)C(C(N)=O)=C(O)[C@@H](N(C)C)[C@@H]3[C@@H](O)[C@@H]21.O [DOXYCYCLINE]	–	–	–	–	–	–	MIC [9]: 512 µg/mL; MIC [25]: 64 µg/mL; MIC [11]: 256 µg/mL; MIC [26]: > 128 µg/mL; MIC [27]: 128 µg/mL; MIC [15]: 64 µg/mL; MIC [28]: > 128 µg/mL
NC[C@H]1O[C@H](O[C@H]2[C@H](OC(=O)Nc3ccccc3)[C@@H](O[C@H]3O[C@H](COC(=O)Nc4ccccc4)[C@@H](OC(=O)Nc4ccccc4)[C@H](N)[C@H]3OC(=O)Nc3ccccc3)[C@H](N)C[C@@H]2N)[C@H](N)C[C@@H]1OC(=O)Nc1ccccc1.O=C(O)C(F)(F)F	32	1	64	16	> 128	0.0312	MIC [8]: 0.008 µg/mL
CC[C@H](C)CCCCC(=O)N[C@@H](CCN)C(=O)N[C@H](C(=O)N[C@@H](CCN)C(=O)N[C@H]1CCNC(=O)[C@H]([C@@H](C)O)NC(=O)[C@H](CCN)NC(=O)[C@H](CCN)NC(=O)[C@H](CC(C)C)NC(=O)[C@@H](Cc2ccccc2)NC(=O)[C@H](CCN)NC1=O)[C@@H](C)O (X1-[Dab]T[Dab][Dab][Dab][dF]L[Dab][Dab]T; lactam 4-C)	–	–	–	–	–	–	MIC [16]: > 128 µg/mL; MIC [20]: > 128 µg/mL; MIC [22]: > 128 µg/mL
NC[C@H]1O[C@H](O[C@H]2[C@H](OC(=O)Nc3ccc(Cl)cc3)[C@@H](O[C@H]3O[C@H](COC(=O)Nc4ccc(Cl)cc4)[C@@H](OC(=O)Nc4ccc(Cl)cc4)[C@H](N)[C@H]3OC(=O)Nc3ccc(Cl)cc3)[C@H](N)C[C@@H]2N)[C@H](N)C[C@@H]1OC(=O)Nc1ccc(Cl)cc1.O=C(O)C(F)(F)F	32	1	64	16	32	0.004	MIC [8]: 0.5 µg/mL
COLISTIN	0.5	–	1	–	0.5	–	–
CC[C@H](C)CCCCC(=O)N[C@@H](CCN)C(=O)N[C@H](C(=O)N[C@@H](CCN)C(=O)N[C@H]1CCNC(=O)[C@H]([C@@H](C)O)NC(=O)[C@H](CCN)NC(=O)[C@H](CCN)NC(=O)[C@H](CC(C)C)NC(=O)[C@@H](Cc2ccccc2)NC(=O)[C@@H](CCN)NC1=O)[C@@H](C)O (X1-[Dab]T[Dab][Dab][dDab][dF]L[Dab][Dab]T; lactam 4-C)	–	–	–	–	–	–	Activity [29]: Active; Activity [30]: Active; Activity [31]: Active
